Laboratory results from the NIST ThermoML archive (doi:10.1021/je400683g).

Assays:
[1] = for surface tension liquid-gas: Maximal bubble pressure; for vapor or sublimation pressure: Closed cell (Static) method
[2] = refractive index (Na D-line) (dimensionless); settings: 298.15 K; 101.33 kPa; Liquid; Standard Abbe refractometry
[3] = xn = mol fraction of the nth substance listed; settings: 298.15 K, Maximal bubble pressure

CCO [ethanol]
Settings | surface tension liquid-gas [mN/m]
[1], 298.15 K | 22.1

[1], Liquid
Settings | vapor or sublimation pressure [kPa]
323.51 K | 30.01
326.79 K | 35.01
329.68 K | 40.01
332.27 K | 45.01
334.57 K | 50
334.63 K | 50.01
336.8 K | 55.01
338.81 K | 60.01
340.68 K | 65.01
342.43 K | 70.01
344.02 K | 75
344.09 K | 75.01
345.64 K | 80.01
347.13 K | 85.01
348.54 K | 90.01
349.56 K | 94
349.89 K | 95.01
351.51 K | 101.33
351.68 K | 102.01

Settings | refractive index
[2] | 1.36068

Cc1ccc(C)o1 [2,5-dimethylfuran] + CCO
[3]
Settings | surface tension liquid-gas [mN/m]
x2 = 0 | 25.1
x2 = 0.049 | 24.96
x2 = 0.09 | 24.89
x2 = 0.176 | 24.68
x2 = 0.29 | 24.38
x2 = 0.386 | 24.22
x2 = 0.492 | 23.93
x2 = 0.594 | 23.73
x2 = 0.701 | 23.4
x2 = 0.804 | 23.02
x2 = 0.915 | 22.73
x2 = 0.963 | 22.5

CCO [ethanol] + Cc1ccc(C)o1
Settings | surface tension liquid-gas [mN/m]
[3], x1 = 1 | 22.1

Cc1ccc(C)o1 [2,5-dimethylfuran]
Settings | surface tension liquid-gas [mN/m]
[1], 298.15 K | 25.1

Settings | mass density [kg/m3]
[1], 298.15 K, 101.33 kPa, Liquid, Vibrating tube method | 896.54

[1], Liquid
Settings | vapor or sublimation pressure [kPa]
345.2 K | 50
357.18 K | 75
364.36 K | 94
366.83 K | 101.33

Settings | refractive index
[2] | 1.44012
